# PMC12428754, “Testing Strategies for Metabolite-Mediated Neurotoxicity” (International Journal of Molecular Sciences, 2025)
# Key:
# [1] = for metabolite formation over time: samples every 30 min for 2 h
# Description: Parent compounds were incubated at final concentrations of either (a) 5 µM or (b) 50 µM (for chlorfenapyr) with pooled human liver microsomes (HLM; mixed gender, n = 150; BioIVT; West Sussex, UK) at corresponding protein concentrations of (a) 0.52 mg/mL or (b) 5.2 mg/mL. Incubations were performed in the absence or presence of NADPH at final concentrations of (a) 1 mM or (b) 10 mM, respectively, using a thermostated orbital shaker at 37 °C and 150 rpm. Reactions were terminated at designated time points by the addition of acetonitrile/methanol (3:1, v/v). Samples were then centrifuged at 10,000× g for 10 min, and the resulting supernatants were analysed by LC-MS/MS.
# All analytes were measured using an Acquity UPLC H-Class system coupled to a Xevo TQ-S micro mass spectrometer (Waters). Chromatographic separation was performed on an Acquity UPLC BEH C18 column (2.1 × 50 mm, 1.7 µm) with a mobile phase consisting of 0.1% formic acid in water (A) and acetonitrile (B). Unless otherwise stated, the column was maintained at 30 °C and operated at a flow rate of 0.4 mL/min. The standard gradient was 95% A from 0 to 1.0 min, decreased to 2% A by 1.5 min, held until 4.0 min, returned to 95% A at 4.3 min, and held until 5.0 min. […] The mass spectrometer operated in electrospray ionisation (ESI) mode. Compound-specific MRM transitions, cone voltages, and collision energies for all analytes are listed in Supplementary Table S2.
# Int. J. Mol. Sci. 2025, 26, x FOR PEER REVIEW 3 of 5
# Supplementary Figure S3: Quantification of specific metabolite formation from selected parent/metabolite pairs in a human liver microsomes (HLM) assay. Parent compounds (PAR) were incubated at a concentration of 5 µM (50 µM for chlorfenapyr) with HLM in the absence (dashed line, open symbols) or presence of NADPH (solid lines, closed symbols). Samples were taken every 30 min for 2 h (+NADPH) or at 2 h only (- NADPH). The remaining fraction of the PAR was quantified for each sample. Additionally, one key metabolite (MET) was measured. Its amount is expressed as fraction of PAR converted to MET, assuming an equimolar PAR to MET reaction, 100 % indicates a complete conversion. The middle-dashed line indicates a metabolite formation of at least 10% of PAR. Data are means of two measurements n.d. = not detected.
# (1 picture or pasted object on this page, not shown here)
# [2] = system: LUHMES cells; details: rat liver S9 50 µg/mL in testing module, 2 h preincubation, RFP-LUHMES; toxicity increased with NADPH
# Description: Figure 4 A strategy to incorporate metabolic competence into in vitro DNT testing methods. (A) A schematic overview of a sequential metabolism and testing approach. The “metabolisation module” uses hepatic post-mitochondrial fractions (S9) to generate metabolite mixtures in the presence or absence of cofactors (NADPH, glucose-6-phosphate, MgCl2). These metabolite mixtures are tested in the “testing module” in a concentration-dependent manner after serial pre-dilutions. Metabolite mixtures are added as a fraction of 10% to the media volume of the “testing module”. The testing module may be a cell-based neurotoxicity (NT) or developmental neurotoxicity (DNT) assay, such as the neurite outgrowth or migration assay. Here, the Mito-Met neurite outgrowth assay, as in Figure 1, was used. […] The curves represent data from three independent experiments and were fitted using a four-parameter Hill function. […] The data represent three independent experiments. The indicated concentrations are “testing module” concentrations.
# To further evaluate our modular pre-activation strategy for identifying metabolite-mediated hazard, we tested a broader panel of compounds. For each compound (parent), a single concentration was used in the metabolisation module. The metabolite mixtures were generated in the absence or presence of NADPH. These metabolite mixtures were serially diluted and assessed using the MitoMet neurite outgrowth assay. As a measure of potency, EC25 values were determined, and potency ratios were calculated to compare the effects of NADPH-dependent versus NADPH-independent metabolism.
# Figure 5 The effect of NADPH-dependent hepatic metabolism on the DNT of selected compounds. (A) A strategy scheme to assess the effect of metabolic enzymes on the outcome of cell-based DNT assays. Metabolite mixtures are generated using the NADPH-(in)dependent metabolic activity of S9. NADPH-independent metabolism is shown in green (light grey). NADPH-dependent metabolism is shown in red (dark grey). […] (B–F) The concentration-dependent effect of metabolite mixtures on neurite outgrowth was measured as in Figure 1, with the following modifications: red-fluorescent-protein (RFP)-expressing LUHMES cells were used. As the assay endpoint, the RFP fluorescence of neurites was used instead of calcein staining. The curves represent data from three independent experiments and were fitted using a four-parameter Hill function. From this, an EC25 was calculated. Bold numbers indicate the fold changes between EC25 values of the NADPH-(in)dependent metabolite mixtures, with the direction of the arrow reflecting the shift in sensitivity. Note that the x-axes indicate nominal concentrations of parent compounds. […] Similar images were used for neurite quantification. The right image (red frame) of the pairs was obtained with NADPH. The black arrowheads above the curves indicate the experimental conditions used to record images. The scale bar in orange corresponds to 50 µm.
# The MitoMet neurite outgrowth assay was performed as previously described. In brief, all cell culture dishes and flasks were pre-coated with 50 μg/mL poly-l-ornithine (PLO) and 1 μg/mL fibronectin. Proliferating LUHMES cells were maintained in AdvDMEM/F12 containing L-glutamine (2 mM), N2 supplement (1x), and FGF (40 ng/mL). For pre-differentiation, the cells were replated at a density of 46,000 cells/cm^2 one day prior to the induction of differentiation (defined as the day of differentiation, Day −1). Differentiation was initiated by exchanging the culture medium for AdvDMEM/F12 supplemented with L-glutamine (2 mM), N2 supplement (1x), dibutyryl-cAMP (1 mM), tetracycline (1 µg/mL), and GDNF (2 ng/mL). After two days of differentiation (Day 2), the cells were replated (100,000 cells/cm^2) into 96-well plates.
# [3] = human liver microsomes, listed under the metabolite
Structure (SMILES),"extent of metabolite formation ([1]; human liver microsomes, result in words)","metabolite formation over time [1, 3]",fold change between EC25 values of NADPH-independent and NADPH-dependent metabolite mixtures (toxification) [2] [x],"cofactor (NADPH) dependence of metabolite formation ([1]; human liver microsomes ± NADPH, result in words)","conversion rate of parent to metabolite ([1]; human liver microsomes, up to 2 h, listed under the metabolite)"
O=C(c1ccccc1)c1ccc(O)cc1 [4-Hydroxybenzophenone],only trace amounts,time-dependent increase in metabolite formation,–,–,–
CN(c1c(Br)cc(Br)cc1Br)c1c([N+](=O)[O-])cc([N+](=O)[O-])cc1C(F)(F)F [Bromethalin],–,–,8,–,–
CCOCn1c(-c2ccc(Cl)cc2)c(C#N)c(Br)c1C(F)(F)F [Chlorfenapyr],–,–,> 6,–,–
N#Cc1c(-c2ccc(Cl)cc2)[nH]c(C(F)(F)F)c1Br [Tralopyril],–,time-dependent increase in metabolite formation,–,clearly dependent on NADPH,approximately 10%
